Experimental data as given in patent publication US8252764B2, “Compositions and methods of use of targeting peptides against placenta and adipose tissues” (priority 2000, dated 2012).

Tests used:
[1] = target: T1, β3 integrin cytoplasmic domain (Homo sapiens, UniProt P05106); test: Phage binding to immobilized GST-β3cyto
T1 sequence (P05106 742-788 limits assumed): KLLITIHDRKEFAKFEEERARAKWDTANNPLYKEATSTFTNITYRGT
Method: (§1) FIG. 18. Binding of β3 cytoplasmic domain-selected phage to immobilized proteins. GST fusion proteins or GST alone were coated on microtiter wells at 10 μg/ml and used to bind phage-expressing endostatin targeting peptides. […] The data represent the mean colony counts from triplicate wells, with standard error of less than 10% of the mean.
β3 and β5 cytoplasmic domain-binding peptides were isolated by screening multiple phage libraries with recombinant GST fusion proteins that contained either GST-β3cyto or GST-β5cyto coated onto microtiter wells. Immobilized GST was used as a negative control for enrichment during the panning of each cytoplasmic domain. Phage were sequenced from randomly selected clones after three rounds of panning as disclosed elsewhere (Koivunen et al., Biotechnology 13:265-270, 1995; Pasqualini et al., 1995). Distinct sequences were isolated that interacted specifically with the β3 or with the β5 cytoplasmic domains (Table 4). Randomly selected clones from panning rounds II and III were sequenced. […] The ratios were calculated by dividing the number of colonies recovered from β3-GST-coated wells and those recovered from GST or BSA.
The specificity of the interaction with β3 or β5 cytoplasmic domains was determined by calculating the ratios of phage bound to the cytoplasmic domain containing-fusion proteins (β3 or β5) versus GST alone (negative control). […]

[2] = target: T2, β5 integrin cytoplasmic domain (Homo sapiens, UniProt P18084); test: Phage binding to immobilized GST-β5cyto; conditions: phage colonies
T2 construct: screenings involving the β5 cytoplasmic domain fusion protein
T2 sequence (P18084 743-799 limits assumed): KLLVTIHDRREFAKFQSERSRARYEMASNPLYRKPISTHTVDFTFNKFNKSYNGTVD
Method: as §1, with “19.” for “18.”, “β5” for “β3”, “binding” for “targeting”, “error” for “error of”
β3 and β5 cytoplasmic domain-binding peptides were isolated by screening multiple phage libraries with recombinant GST fusion proteins that contained either GST-β3cyto or GST-β5cyto coated onto microtiter wells. Immobilized GST was used as a negative control for enrichment during the panning of each cytoplasmic domain. Phage were sequenced from randomly selected clones after three rounds of panning as disclosed elsewhere (Koivunen et al., Biotechnology 13:265-270, 1995; Pasqualini et al., 1995). Distinct sequences were isolated that interacted specifically with the β3 or with the β5 cytoplasmic domains (Table 4). Randomly selected clones from panning rounds II and III were sequenced. Amino acid sequences of the phagemid encoded peptides were deduced from nucleotide sequences. The ratios were calculated by dividing the number of colonies recovered from β3-GST-coated wells and those recovered from GST or BSA.
A similar strategy was used to determine the specificity of the phage isolated in the screenings involving the β5 cytoplasmic domain fusion protein.

HUVECs [3] = test: HUVEC chemotaxis assay (Boyden chamber); type: cell-based, human; conditions: HUVECs, VEGF-A, not shown
Method: FIG. 33. […] (SEQ ID NO:56) inhibits HUVEC migration. HUVECs were stimulated with VEGF-A (10 ng/ml). The assay was performed in a Boyden microchemotaxis chamber, and cells were allowed to migrate through an 8-μm pore filter for 5 h at 37° C. […] (SEQ ID NO:57) (control) and […] (SEQ ID NO:56) peptides were tested at 1 mM concentration. Migrated cells were stained and five high-power fields (magnitude 100×) for each microwell were counted. Error bars are the standard error of the means of triplicate microwells.
A cell migration assay was performed in a 48-well microchemotaxis chamber (NeuroProbe, Gaithersburg, Md.) according to Bussolini et al. (1995). Polyvinylpyrrolidone-free polycarbonate filters (Nucleopore, Cambridge, Mass.) with 8-μm pores were coated with 1% gelatin for 10 min at room temperature and equilibrated in M199 medium supplemented with 2% FCS. […] (SEQ ID NO:56) or control […] (SEQ ID NO:57) peptide (1 mM) was placed in the lower compartment of a Boyden chamber in M199 medium supplemented with 2% FCS and 10 ng/ml VEGF-A (R&D System). Subconfluent cultures that had been starved overnight were harvested in PBS containing 2.5 mM EDTA, washed once in PBS, and resuspended in M199 medium containing 2% FCS at a final concentration of 2×10^6 cells/ml. […] Five random high-power fields (magnitude 100×) were counted in each well. […]

HUVECs [4] = test: Three-dimensional cell culture on Matrigel; type: cell-based, human; conditions: HUVECs on three-dimensional matrix gel, not shown
Method: Matrigel (Collaborative Research, Bedford, Mass.) was added at 100 μl per well to 48-well tissue culture plates and allowed to solidify for 10 min at 37° C. HUVECs were starved for 24 h in M199 medium supplemented with 2% FCS before being harvested in PBS containing 2.5 mM EDTA. 10^4 cells were gently added to each of the triplicate wells and allowed to adhere to the gel coating for 30 min at 37° C. Then, medium was replaced with indicated concentrations of […] (SEQ ID NO:56) or […] (SEQ ID NO:57) peptides in complete medium. The plates were photographed after 24 h with an inverted microscope (Canon). The assay was repeated three times.

SK-RC-49/APA cells = test: Phage binding specificity assay on SK-RC-49/APA cells; type: cell-based; conditions: soluble peptide, not shown
Method: The cell binding assay was performed with an input of 10^9 TU as described for the cell panning. The specificity was confirmed by adding […] (SEQ ID NO:56) peptide to the binding medium in increasing concentrations. For phage binding on immunocaptured APA, wells were blocked for 1 h at room temperature with PBS/3% BSA and incubated with 10^9 TU for 1 h at room temperature in 50 μl PBS/3% BSA. After eight washes in PBS/1% BSA/0.01% Tween-20 and two washes in PBS, phage were rescued by adding 200 μl of exponentially growing K91Kan E. coli. Each experiment was repeated at least three times.

[5] = test system: chicken chorioallantoic membrane (CAM); test: CAM assay for angiogenesis; type: in vivo
Method: In vivo angiogenesis was evaluated by a CAM assay (Ribatti et al., 1994). Fertilized eggs from White Leghorn chickens were maintained in constant humidity at 37° C. On the third day of incubation, a square window was opened in the eggshell and 2-3 ml of albumen was removed to detach the developing CAM from the shell. The window was sealed with a glass plate of the same size and the eggs were returned to the incubator. At day 8, 1 mm^3 sterilized gelatin sponges (Gelfoam, Upjohn Co, Kalamazoo, […]) were adsorbed with VEGF-A (20 ng, R&D System) and either […] (SEQ ID NO:56) or control […] (SEQ ID NO:57) peptide (1 mM) in 3 μl PBS and implanted on the top of the growing CAMs under sterile conditions. CAMs were examined daily until day 12 and photographed in ovo with a Leica stereomicroscope. Capillaries emerging from the sponge were counted. The assay was repeated twice.

endothelial cells = test: Endothelial cell migration (chemotaxis) assay with penetratin peptide chimeras; type: cell-based, human; conditions: 48-well microchemotaxis chamber
Method: FIG. 25. Effect of penetratin peptide chimeras on endothelial cell migration. Cell migration assay were performed, in a 48-well microchemotaxis chamber. Five random high-power fields (magnitude 40×) were counted in each well.
Cell migration assays were performed as follows: 48-well microchemotaxis chambers were used. Polyvinylpyrrolidone-free polycarbonate filters (Nucleopore, Cambridge, Mass.) with 8-μm pores were coated with 1% gelatin for 10 min at room temperature and equilibrated in M199 medium supplemented with 2% FCS. Peptides were placed in the lower compartment of a Boyden chamber in M199 supplemented with 2% FCS, 20 ng/ml VEGF-A (R&D System), and 1 U/ml heparin. Overnight-starved subconfluent cultures were quickly trypsinized, and resuspended in M199 containing 2% FCS at a final concentration of 2×10^6 cells/ml. After the filter was placed between lower and upper chambers, 50 μl of the cell suspension was seeded in the upper compartment. Cells were allowed to migrate for 5 h at 37° C. in a humidified atmosphere with 5% CO2. The filter was then removed, and cells on the upper side were scraped with a rubber policeman. […] Five random high-power fields (magnitude 40×) were counted in each well.
Cell migration was assayed in a 48-well microchemotaxis chamber. […] Five random high-power fields (magnitude 40×) were counted in each well.

## AGWLYMSWK
[1]; phage colonies recovered from β3-GST-coated wells divided by BSA
  β3/BSA Ratio: 2.4
[1]; phage colonies recovered from β3-GST-coated wells divided by GST
  β3/GST Ratio: 1.8

## CKLWQEDGY
[2]; β5 versus BSA
  β5/BSA Ratio: 665
[2]; β5 versus GST
  β5/GST Ratio: 1.8

## GACVRLSACGA [reference compound]
HUVECs [3]
  effect on cell migration or proliferation: no significant effect on cell migration or proliferation
HUVECs [4]
  formation of capillary-like network: did not affect HUVEC morphogenesis
SK-RC-49/APA cells
  competition with CPKVCPRECESNC phage for binding to SK-RC-49/APA cells: no competitive activity
[5]; VEGF-A 20 ng, peptide 1 mM, mean and standard error, two experiments
  BLOOD VESSEL NUMBERS: 56.5 ± 2.12
[5]; not shown
  effect on the number of growing vessels: no effect on the number of growing vessels

## GLDTYRGSP
Endothelial cells
  effect on endothelial cell migration: increase cell migration

## SDNRYIGSW
Endothelial cells
  effect on endothelial cell migration: increase cell migration
